# How the values were obtained:
# Assay type in all cases: physicochemical
# [1] = Clinical infusion bag compatibility
# Protocol: A standard mini-infusion bag (100 mL) was subjected to material compatibility testing with the following formulation:
# The developed brincidofovir formulation (15 mg/mL brincidofovir, 200 mM sodium phosphate, pH=8.0) was diluted to c(BCV)=0.1 and c(BCV)=1.0 mg/mL by injection into the infusion bags. The infusion bags were then stored at ambient conditions, and samples were collected from the infusion bags at the time points (t0, t1h, t8h, and t24h) for assessments of appearance, pH, and c(BCV). As a control, the 5% dextrose solution was removed from a separate infusion bag, and external dilutions (standard laboratory glassware) of the testing formulation with the 5% dextrose solution were performed applying identical dilution factors. Samples of the external diluted solution were likewise analyzed.
# Solutions of Formulation 3a, in a 5% dextrose injection vehicle, were prepared at two different formulation strengths (1.0 mg/mL and 0.1 mg/mL brincidofovir), and stored in the infusion bag at ambient conditions. Samples form the infusion bags and from an externally diluted standard were evaluated for appearance, pH and brincidofovir recovery (determined via HPLC) at the beginning of the study (t0), after 8 h (t8h), and after 24 h (t24h).
# [2] = Brincidofovir equilibrium solubility in formulation vehicles
# Protocol: The recovery of brincidofovir in the sample supernatant was determined at different time points to establish when the solubility equilibrium was reached. Two samples of vehicle #57, were saturated with brincidofovir. […] Consequently, the pH had to be brought up close to the target pH before more brincidofovir was added.
# [3] = Drug product vial and stopper compatibility
# Protocol: Formulations of the disclosure were evaluated for […]. The testing formulation (5 mL, 10 mg/mL brincidofovir, 200 mM sodium phosphate, pH=8.0) was dispensed into a set of Afton sterilized, Ready-To-Fill® vials. The vials were stoppered with West NovaPure® stoppers and crimped with Afton Ready-To-Fill® sterilized seals, and stored for 6 hours at ambient conditions in upright and inverted orientations. Samples of the filling solution were collected before filling and after 6 hours of storage under the respective condition. The collected samples were assessed for their appearance, pH, and c(BCV). […] No additional impurity was introduced following contact.
# The vials used for testing were clear, 20 mL, Class A borosilicate glass serum vials, and the stoppers were 20 mm Novapure® stoppers, with FluroTec® coating.
# [4] = c(BCV) 0.1 mg/mL in infusion bag, t0
# [5] = c(BCV) 0.1 mg/mL in infusion bag, t1 h
# [6] = c(BCV) 0.1 mg/mL in infusion bag, t8 h
# [7] = c(BCV) 0.1 mg/mL in infusion bag, t24 h
# [8] = c(BCV) 0.1 mg/mL, external dilution
# [9] = c(BCV) 1.0 mg/mL in infusion bag, t0
# [10] = c(BCV) 1.0 mg/mL in infusion bag, t1 h
# [11] = c(BCV) 1.0 mg/mL in infusion bag, t8 h
# [12] = c(BCV) 1.0 mg/mL in infusion bag, t24 h
# [13] = c(BCV) 1.0 mg/mL, external dilution
smiles,measurement,setting,value
CCCCCCCCCCCCCCCCOCCCOP(=O)(O)CO[C@H](CO)Cn1ccc(N)nc1=O [Brincidofovir],Appearance,[1]; [4],"Clear,"
same,Measured pH,[1]; [4],7.9
same,Observed c(BCV),[1]; [4],0.092 mg/mL
same,Appearance,[1]; [5],"Clear,"
same,Measured pH,[1]; [5],7.9
same,Observed c(BCV),[1]; [5],0.093 mg/mL
same,Appearance,[1]; [6],"Clear,"
same,Measured pH,[1]; [6],7.9
same,Observed c(BCV),[1]; [6],0.093 mg/mL
same,Appearance,[1]; [7],"Clear,"
same,Measured pH,[1]; [7],7.9
same,Observed c(BCV),[1]; [7],0.093 mg/mL
same,Appearance,[1]; [8],"Clear,"
same,Measured pH,[1]; [8],7.9
same,Observed c(BCV),[1]; [8],0.098 mg/mL
same,Appearance,[1]; [9],"Clear,"
same,Measured pH,[1]; [9],8.2
same,Observed c(BCV),[1]; [9],0.87 mg/mL
same,Appearance,[1]; [10],"Clear,"
same,Measured pH,[1]; [10],8.2
same,Observed c(BCV),[1]; [10],0.87 mg/mL
same,Appearance,[1]; [11],"Clear,"
same,Measured pH,[1]; [11],8.2
same,Observed c(BCV),[1]; [11],0.87 mg/mL
same,Appearance,[1]; [12],"Clear,"
same,Measured pH,[1]; [12],8.1
same,Observed c(BCV),[1]; [12],0.86 mg/mL
same,Appearance,[1]; [13],"Clear,"
same,Measured pH,[1]; [13],8.2
same,Observed c(BCV),[1]; [13],0.94 mg/mL
same,solubility thermodynamic,"[2]; pH 6.9, thermodynamic from solid",~25 mg/mL
same,solubility thermodynamic,"[2]; pH 8, thermodynamic from solid",> 270 mg/mL
same,Appearance,"[3]; Inverted, 6 h","Clear, colorless"
same,Measured pH,"[3]; Inverted, 6 h",8.0
same,Observed c(BCV),"[3]; Inverted, 6 h",9.4 mg/mL
same,Appearance,[3]; Pre filling,"Clear, colorless"
same,Measured pH,[3]; Pre filling,8.0
same,Observed c(BCV),[3]; Pre filling,9.5 mg/mL
same,Appearance,"[3]; Upright, 6 h","Clear, colorless"
same,Measured pH,"[3]; Upright, 6 h",8.0
same,Observed c(BCV),"[3]; Upright, 6 h",9.5 mg/mL

# Source: US20170368082A1, “FORMULATIONS OF BRINCIDOFOVIR” (priority 2016, published 2017)
